Columns and labels:
Assay type in all cases: cell-based
[1] = test system: Plasmodium falciparum W2 strain (chloroquine resistant); test: In vitro screening against Plasmodium falciparum, 3H-hypoxanthine incorporation, W2 strain; settings: for In vitro activity: (IC10) / In vitro activity: IC50 / In vitro activity: IC90: 66 hours incubation
Description: (§1) Two parasite strains—W2 resistant to chloroquine, and D6 sensitive to chloroquine but resistant to mefloquine were used. In Table IV below, the best compounds should show no cross resistance between the two strains.
(§2) The assay relies on incorporation of radiolabelled hypoxanthine by the parasite and inhibition of incorporation is attributed to activity of known or candidate antimalarial drugs. For each assay, proven antimalarials such as chloroquine, mefloquine, quinine, artemisinin and pyrimethamine were used as controls. The incubation period was 66 hours, and the starting parasitemia was 0.2% with 1% hematocrit. The medium was an RPMI-1640 culture with no folate or p-aminobenzoic acid. Albumax rather than 10% normal heat inactivated human plasma was used as, with Albumax, less protein binding is observed, and compounds elicit slightly higher activities in this model. If a compound was submitted with no prior knowledge of activity, it was dissolved directly in dimethyl sulphoxide (DMSO), and diluted 400 fold with complete culture medium. The unknown compound was started at a maximum concentration of 50,000 ng ml^−1 and sequentially diluted 2-fold for 11 times to give a concentration range of […]. These dilutions were performed automatically by a Biomek 1000 Liquid Handling System in 96-well microtiter plates. The diluted drugs were then transferred to test plates, 200 μl of parasitized erythrocytes were added, and incubated at 37° C. in a controlled environment of 5% CO2, 5% O2 and 90% N2. After 42 hours, 25 μl of ^3H-hypoxanthine was added, and the plates incubated for an additional 24 hours. After 66 hours, the plates were frozen at −70° C. to lyse the red cells, and then thawed and harvested onto glass fiber filter mats in a 96-well harvester. The filter mats were then counted in a scintillation counter. For each drug, the concentration response profile was determined and 50%, 90% and 10% inhibitory concentrations (IC50 IC90 and IC10) were determined by a non-linear logistic dose response analysis program.
(§3) A prescreen format can be used wherein a 3-dilution assay may be used to determine activity at high medium or low concentrations. The concentrations were selected as 50,000, 500 and 50 ng ml^−1. These were performed in duplicate on a 96-well format plate with 14 test compounds and one known (standard) compound per plate. The system was automated with a Biomek diluter for mixing and diluting the drugs, and adding drugs and parasites to a test plate. In the prescreen format, if the ANALYSIS FIELD (AP) has a “<”, then the compound was “very active” and the IC values are most likely to be below the last dilution value (in nanograms/ml), which is listed next to AF. In most cases, these compounds were run again at lower starting concentration to determine the true IC value. If the AF has a “>”, then the IC value is greater than the prescreen dilution value; thus “AF>250” means that the IC value is greater than 250 ng ml^−1 and no further screening is carried out. In such cases, values of 0.00 are entered for IC values.

[2] = test system: Plasmodium falciparum D6 strain (chloroquine sensitive); test: In vitro screening against Plasmodium falciparum, 3H-hypoxanthine incorporation, D6 strain; settings: 66 hours incubation
Description: as §1, §2, §3

Neospora caninum = test: Screening against Neospora caninum cell cultures in vitro (VERO or ED host cells); parameters: key: 0 = no effect monolayer completely destroyed; 1 = weak effect monolayer partly destroyed, parasite clumps can be seen; 2 = full effect monolayer intact, no tachyzoites observable; T = cytotoxic cells are dead, lysed; settings: microscopic evaluation 4 days after treatment
Protocol: Screening was conducted in 96-well plates (Falcon 3872). A monolayer of host cells (VERO or ED) were placed on a cell culture plate. Non-infected mono-layers of cells were cultured in two 50 ml tissue culture bottles ([…] cell culture area). The cell layer was detached with trypsin-EDTA (5 ml. Gibco 45300-019) in a CO2-culture cupboard at 37° C. After 10 minutes, most of the cells were detached. The cells were transferred with a 5 ml pipette into a 50 ml centrifuge tube (Greiner, B769331) containing about 1 ml warmed fetal calf serum. After centrifugation for 5 minutes at 1500 rpm (Varifuge 3.0, Heraeus), the liquid was removed and the cell pellet suspended in RPMI medium (100 ml, 95% RPMI 1640, 2% FCS, 1% L-glutamine, 1% sodium hydrogen carbonate, 1% penicillin/streptomycin). The cell suspension was pipetted into six 96-well plates at 150 μl per well. The coated cell culture plates were placed in an incubation cupboard at 37° C. under 5% CO2 for 24 hours. The cells were then infected with Neospora caninum tachyzoites at a concentration of 48,000 tachyzoites per well. This was followed by incubation at 37° C. under 5% CO2 for 24 hours.
The test compounds (0.5-1.5 mg) were weighed into 1.5 ml eppendorf vessels and dissolved in 1 ml dimethyl sulphoxide, corresponding to a dilution of about 1×10^−3 g ml^−1. The medium used for further dilution consisted of 87% RPMI 1640, 10% FCS, 1% L-glutamine, 1% sodium hydrogen carbonate, 1% penicillin/streptomycin. In the first screening, concentrations of […], […] and 10^−7 g ml^−1 were used. The diluted preparations were then transferred to the cell culture plates at a volume of 150 μl per well after 24 hour infection with Neospora caninum. For the first row, untreated medium was used; this row contained infected and uninfected cells as controls. The cell plate was incubated at 37° C. under 5% CO2 for 5 days. Microscopic evaluation was conducted 4 days after treatment and 5 days after infection at a magnification of 25×10 in an inverse microscope according to the following evaluation scheme.

Eimeria tenella = test: Screening against Eimeria tenella cell cultures in vitro (chick kidney cells); parameters: key: 3 = very active no intact parasites/well; 2 = active 1-6 parasites per well; 1 = weakly active up to 1 intact schizont/optical field of vision; 0 = inactive >1 intact schizont/optical field of vision; T = cytotoxic host cells are dead; settings: day 5 post infection
Protocol: Cells from kidneys of 19 day old chicks are cultured as monolayers in 96-well plates (Falcon 3872) in a medium of Hanks lactalbumine hydrolysate, 5% fetal calf serum, 1% glutamine and 1% non-essential amino acids. After two days at 42° C. under 5% CO2, the culture was infected with excised sporozoites of Eimeria tenella at about […] per well. Test compounds were dissolved in DKSO and diluted with culture medium to a maximum end concentration of 10 μg ml^−1. The dilution steps were 1:10. On day 5 post infection, the cultures were evaluated under a microscope at 100-fold magnification and the condition of the host cells and the amount of intact schizonts and free merozoites was determined.

Compound	In vitro activity: (IC10) [1] [ng/mL]	In vitro activity: IC50 [1] [ng/mL]	In vitro activity: IC90 [1] [ng/mL]	In vitro activity: (IC10) [2] [ng/mL]	In vitro activity: IC50 [2] [ng/mL]	In vitro activity: IC90 [2] [ng/mL]	Evaluation of effect against Neospora caninum (Neospora caninum; Dose 10^−5 g/ml)	Effectiveness rating against Eimeria tenella (Eimeria tenella; Dose 10^−5 g/ml)	Effectiveness rating against Eimeria tenella (Eimeria tenella; Dose 10^−6 g/ml)	Effectiveness rating against Eimeria tenella (Eimeria tenella; Dose 10^−7 g/ml)	Evaluation of effect against Neospora caninum (Neospora caninum; Dose 10^−6 g/ml)	Evaluation of effect against Neospora caninum (Neospora caninum; Dose 10^−7 g/ml)	Effectiveness rating against Eimeria tenella (Eimeria tenella; Dose 10^−8 g/ml)	Evaluation of effect against Neospora caninum (Neospora caninum; Dose 10^−8 g/ml)	ANALYSIS FIELD (AF): bound on the IC values in prescreen format ([1]; prescreen 3-dilution assay, 0.00 entered for IC values)
COc1cc(OC)c(C2OC3OC4(C)CCC5C(C)CCC(C2C)C35OO4)c(OC)c1 (mixture of isomers) [Example 12]	0.47	0.78	1.32	0.35	0.77	1.70	–	–	–	–	–	–	–	–	–
CC1CCC2[C@@H](C)C(=O)OC3O[C@]4(C)CCC1C32OO4 (stereo partly shown) [Artemisinin, artemisinin]	–	–	–	–	–	–	0	2 (2 = active 1-6 parasites per well)	1 (1 = weakly active up to 1 intact schizont/optical field of vision)	0 (0 = inactive >1 intact schizont/optical field of vision)	–	–	–	–	–
CC1CCC2C(C)C(F)OC3OC4(C)CCC1C32OO4 (stereo not drawn) [Example 1, 10β-fluoro-10-deoxo-10-dihydroartemisinin]	–	0.69	0.98	–	0.74	1.36	–	–	–	–	–	–	–	–	–
CC1CCC2C(C)C(c3ccccc3)OC3OC4(C)CCC1C32OO4 (stereo not drawn) [Example 2, 10β-phenyl-10-deoxo-10-dihydroartemisinin]	0.19	0.31	0.52	0.53	0.73	0.99	1	2 (2 = active 1-6 parasites per well)	2 (2 = active 1-6 parasites per well)	1 (1 = weakly active up to 1 intact schizont/optical field of vision)	1	0	0 (0 = inactive >1 intact schizont/optical field of vision)	–	–
COc1ccc(C2O[C@@H]3O[C@@]4(C)CC[C@H]5[C@H](C)CC[C@@H]([C@H]2C)[C@@]35OO4)c(OC)c1 (stereo partly shown) [Example 4, 10-(2′,4′-dimethoxyphenyl)-10-deoxo-10-dihydroartemisinin]	0.40	0.84	1.74	0.52	1.05	2.10	–	–	–	–	–	–	–	–	–
CC1CCC2C(C)C(Nc3ccccc3)OC3OC4(C)CCC1C32OO4 (stereo not shown) [Example 15]	0.52	0.66	0.84	0.48	0.61	0.78	–	2 (2 = active 1-6 parasites per well)	2 (2 = active 1-6 parasites per well)	1 (1 = weakly active up to 1 intact schizont/optical field of vision)	1	1	0 (0 = inactive >1 intact schizont/optical field of vision)	0	–
CC1CCC2C(C)C(Nc3ccc(F)cc3)OC3OC4(C)CCC1C32OO4 (stereo not shown) [Example 16]	0.49	0.64	0.84	0.48	0.61	0.78	–	–	–	–	–	–	–	–	–
CC1CCC2C(C)C(NCc3ccccc3)OC3OC4(C)CCC1C32OO4 (stereo not shown) [Example 21]	–	–	–	0.79	1.77	3.96	2	–	0 (0 = inactive >1 intact schizont/optical field of vision)	–	0	–	–	–	–
CCN(CC)C1OC2OC3(C)CCC4C(C)CCC(C1C)C24OO3 (stereo not shown) [Example 26]	–	–	–	5.05	9.05	16.24	–	–	–	–	–	–	–	–	0.00; 0.00 AF < 4 ng/ml
CC(NC1OC2OC3(C)CCC4C(C)CCC(C1C)C24OO3)c1ccccc1 (stereo not shown) [Example 30]	–	–	–	6.74	11.20	18.61	1	T	2 (2 = active 1-6 parasites per well)	0 (0 = inactive >1 intact schizont/optical field of vision)	0	–	–	–	–
CC1CCC2C(C)C(c3ccc(Br)cc3)OC3OC4(C)CCC1C32OO4 (stereo not shown) [Example 38]	0.55	1.23	2.76	0.22	0.90	3.69	–	–	–	–	–	–	–	–	–
COc1cc(OC)c(C2OC3OC4(C)CCC5C(C)CCC(C2C)C35OO4)c(OC)c1 (stereo not shown) [Example 44]	0.13	0.3318	0.8168	0.29	0.69	1.67	–	–	–	–	–	–	–	–	–

— US6984640B1, “Antiparasitic artemisinin derivatives (endoperoxides)” (Bayer Aktiengesellschaft, priority 1998, dated 2006)
